Measured values: article PMC12406203 (Journal of Medicinal Chemistry, 2025)

Legend:
Assay in all cases: KINOMEscan
Format in all cases: binding
CSNK1D = biological target: T1, CSNK1D (Homo sapiens, UniProt P48730)
T1 construct: purchased Eurofins DiscoverX, LLC; host or cells: E. coli (T7 phage) or HEK-293

ABL1-nonphosphorylated = biological target: T2, ABL1-nonphosphorylated (Homo sapiens, UniProt P00519)
T2 construct: purchased Eurofins DiscoverX, LLC; host or cells: E. coli BL21-derived (T7 phage) or HEK-293

BRAF = biological target: T3, BRAF (Homo sapiens, UniProt P15056)
T3 construct: purchased Eurofins DiscoverX, LLC; host or cells: E. coli BL21-derived (T7 phage) or HEK-293

ULK2 = biological target: T4, ULK2 (Homo sapiens, UniProt Q8IYT8)
T4 construct: purchased Eurofins DiscoverX, LLC; host or cells: E. coli BL21-derived host (T7 phage) or HEK-293
T4 sequence (Q8IYT8 1-1036): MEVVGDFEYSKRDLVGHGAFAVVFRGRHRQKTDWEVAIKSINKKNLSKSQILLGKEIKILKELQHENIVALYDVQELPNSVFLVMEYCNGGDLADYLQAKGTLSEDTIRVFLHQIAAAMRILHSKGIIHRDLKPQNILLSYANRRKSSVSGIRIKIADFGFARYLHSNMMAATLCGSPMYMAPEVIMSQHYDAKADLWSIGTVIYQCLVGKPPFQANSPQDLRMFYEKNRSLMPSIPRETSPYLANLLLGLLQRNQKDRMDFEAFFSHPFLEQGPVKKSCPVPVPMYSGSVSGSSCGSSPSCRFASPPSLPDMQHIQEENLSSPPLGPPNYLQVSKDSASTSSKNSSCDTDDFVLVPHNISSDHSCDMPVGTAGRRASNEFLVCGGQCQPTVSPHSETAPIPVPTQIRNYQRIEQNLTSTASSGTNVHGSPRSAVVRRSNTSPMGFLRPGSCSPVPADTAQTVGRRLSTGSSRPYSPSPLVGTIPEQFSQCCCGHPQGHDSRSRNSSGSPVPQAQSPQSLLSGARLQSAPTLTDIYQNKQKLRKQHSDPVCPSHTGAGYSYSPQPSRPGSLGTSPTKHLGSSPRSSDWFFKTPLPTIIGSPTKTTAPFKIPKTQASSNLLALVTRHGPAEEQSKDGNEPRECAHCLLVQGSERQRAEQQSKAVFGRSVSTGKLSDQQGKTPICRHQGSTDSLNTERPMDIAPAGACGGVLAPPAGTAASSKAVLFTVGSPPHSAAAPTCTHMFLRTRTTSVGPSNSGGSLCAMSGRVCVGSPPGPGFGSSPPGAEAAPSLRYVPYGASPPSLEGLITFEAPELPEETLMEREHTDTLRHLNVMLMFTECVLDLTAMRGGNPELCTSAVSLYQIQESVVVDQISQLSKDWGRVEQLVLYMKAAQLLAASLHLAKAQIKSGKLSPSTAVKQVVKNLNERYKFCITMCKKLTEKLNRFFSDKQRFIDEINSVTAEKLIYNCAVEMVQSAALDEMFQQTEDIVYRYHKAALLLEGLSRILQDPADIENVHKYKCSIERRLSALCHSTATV

TGFBR1 = biological target: T5, TGFBR1 (Homo sapiens, UniProt P36897)
T5 construct: purchased Eurofins DiscoverX, LLC; host or cells: E. coli BL21-derived host (T7 phage) or HEK-293
T5 sequence (P36897 34-503): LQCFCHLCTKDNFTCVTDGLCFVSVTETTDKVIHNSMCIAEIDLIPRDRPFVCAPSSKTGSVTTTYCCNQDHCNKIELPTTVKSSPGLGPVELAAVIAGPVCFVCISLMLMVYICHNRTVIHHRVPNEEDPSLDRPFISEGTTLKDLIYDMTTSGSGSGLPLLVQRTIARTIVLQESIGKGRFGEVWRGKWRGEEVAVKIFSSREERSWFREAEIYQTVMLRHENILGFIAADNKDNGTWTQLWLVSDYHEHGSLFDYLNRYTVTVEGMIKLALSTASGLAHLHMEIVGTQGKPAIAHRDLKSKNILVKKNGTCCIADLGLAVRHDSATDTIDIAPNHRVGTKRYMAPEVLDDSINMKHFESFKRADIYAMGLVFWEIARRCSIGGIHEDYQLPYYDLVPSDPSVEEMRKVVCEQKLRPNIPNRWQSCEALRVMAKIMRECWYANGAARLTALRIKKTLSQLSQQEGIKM

PLK3 = biological target: T6, PLK3 (Homo sapiens, UniProt Q9H4B4)
T6 construct: purchased Eurofins DiscoverX, LLC; host or cells: E. coli BL21-derived host (T7 phage) or HEK-293

MARK3 = biological target: T7, MARK3 (Homo sapiens, UniProt P27448)
T7 construct: purchased Eurofins DiscoverX, LLC; host or cells: E. coli (BL21-derived, T7 phage) or HEK-293

ERBB2 = biological target: T8, ERBB2 (Homo sapiens, UniProt P04626)
T8 construct: purchased Eurofins DiscoverX, LLC; host or cells: E. coli (T7 phage) or HEK-293

MEK1 = biological target: T9, MEK1 (Homo sapiens, UniProt Q02750)
T9 construct: purchased Eurofins DiscoverX, LLC; host or cells: E. coli (BL21-derived, T7 phage) or HEK-293

VEGFR2 = biological target: T10, VEGFR2 (Homo sapiens, UniProt P35968)
T10 construct: purchased Eurofins DiscoverX, LLC; host or cells: E. coli BL21-derived host (T7 phage) or HEK-293

PDGFRA = biological target: T11, PDGFRA (Homo sapiens, UniProt P16234)
T11 construct: purchased Eurofins DiscoverX, LLC; host or cells: E. coli BL21-derived host (T7 phage) or HEK-293

T10 sequence (P35968 20-1356): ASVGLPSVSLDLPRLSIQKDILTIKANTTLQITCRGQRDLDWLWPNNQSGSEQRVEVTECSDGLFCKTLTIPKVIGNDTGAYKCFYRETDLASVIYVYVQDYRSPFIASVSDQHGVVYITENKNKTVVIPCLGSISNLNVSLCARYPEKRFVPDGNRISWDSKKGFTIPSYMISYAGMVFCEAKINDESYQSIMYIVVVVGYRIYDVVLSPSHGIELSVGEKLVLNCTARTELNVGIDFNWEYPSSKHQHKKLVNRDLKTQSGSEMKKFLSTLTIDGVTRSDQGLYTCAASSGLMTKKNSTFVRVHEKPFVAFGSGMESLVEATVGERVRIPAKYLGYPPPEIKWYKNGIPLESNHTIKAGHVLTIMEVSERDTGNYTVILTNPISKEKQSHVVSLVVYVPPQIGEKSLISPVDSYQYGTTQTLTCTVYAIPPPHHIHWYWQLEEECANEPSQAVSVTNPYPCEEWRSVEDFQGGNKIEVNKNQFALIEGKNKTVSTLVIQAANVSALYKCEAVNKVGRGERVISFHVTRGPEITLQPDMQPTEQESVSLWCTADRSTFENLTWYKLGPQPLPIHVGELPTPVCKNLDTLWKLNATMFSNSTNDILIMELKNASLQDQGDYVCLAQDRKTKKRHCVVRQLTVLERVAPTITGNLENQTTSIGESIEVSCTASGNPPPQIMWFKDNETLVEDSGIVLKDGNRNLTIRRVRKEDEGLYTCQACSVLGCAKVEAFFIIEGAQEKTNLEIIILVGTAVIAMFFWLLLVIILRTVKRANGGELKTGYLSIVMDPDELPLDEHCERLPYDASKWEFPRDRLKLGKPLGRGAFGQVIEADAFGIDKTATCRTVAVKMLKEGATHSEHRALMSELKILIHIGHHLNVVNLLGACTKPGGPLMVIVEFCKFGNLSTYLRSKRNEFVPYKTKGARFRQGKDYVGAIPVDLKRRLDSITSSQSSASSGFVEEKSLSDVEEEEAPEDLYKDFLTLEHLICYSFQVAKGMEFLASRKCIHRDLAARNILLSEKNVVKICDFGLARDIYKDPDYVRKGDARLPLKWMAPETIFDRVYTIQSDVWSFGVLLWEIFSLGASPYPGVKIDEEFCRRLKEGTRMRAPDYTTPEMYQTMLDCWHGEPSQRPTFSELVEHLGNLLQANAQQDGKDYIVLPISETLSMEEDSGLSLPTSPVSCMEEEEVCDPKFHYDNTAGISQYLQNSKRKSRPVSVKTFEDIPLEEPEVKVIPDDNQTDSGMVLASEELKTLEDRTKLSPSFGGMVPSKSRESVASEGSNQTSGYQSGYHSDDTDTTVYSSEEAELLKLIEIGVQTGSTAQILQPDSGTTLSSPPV
T1 sequence (P48730 whole entry): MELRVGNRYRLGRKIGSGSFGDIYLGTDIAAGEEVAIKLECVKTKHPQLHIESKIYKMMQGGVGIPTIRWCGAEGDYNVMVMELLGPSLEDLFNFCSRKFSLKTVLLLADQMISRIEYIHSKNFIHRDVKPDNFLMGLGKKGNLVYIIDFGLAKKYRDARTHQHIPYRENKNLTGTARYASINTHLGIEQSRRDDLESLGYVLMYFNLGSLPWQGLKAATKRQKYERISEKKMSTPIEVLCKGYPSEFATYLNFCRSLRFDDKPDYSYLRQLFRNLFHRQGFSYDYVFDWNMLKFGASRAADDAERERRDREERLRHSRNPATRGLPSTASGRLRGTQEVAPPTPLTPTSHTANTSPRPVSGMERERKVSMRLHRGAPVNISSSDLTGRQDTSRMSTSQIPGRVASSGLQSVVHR
T2 sequence (P00519 whole entry): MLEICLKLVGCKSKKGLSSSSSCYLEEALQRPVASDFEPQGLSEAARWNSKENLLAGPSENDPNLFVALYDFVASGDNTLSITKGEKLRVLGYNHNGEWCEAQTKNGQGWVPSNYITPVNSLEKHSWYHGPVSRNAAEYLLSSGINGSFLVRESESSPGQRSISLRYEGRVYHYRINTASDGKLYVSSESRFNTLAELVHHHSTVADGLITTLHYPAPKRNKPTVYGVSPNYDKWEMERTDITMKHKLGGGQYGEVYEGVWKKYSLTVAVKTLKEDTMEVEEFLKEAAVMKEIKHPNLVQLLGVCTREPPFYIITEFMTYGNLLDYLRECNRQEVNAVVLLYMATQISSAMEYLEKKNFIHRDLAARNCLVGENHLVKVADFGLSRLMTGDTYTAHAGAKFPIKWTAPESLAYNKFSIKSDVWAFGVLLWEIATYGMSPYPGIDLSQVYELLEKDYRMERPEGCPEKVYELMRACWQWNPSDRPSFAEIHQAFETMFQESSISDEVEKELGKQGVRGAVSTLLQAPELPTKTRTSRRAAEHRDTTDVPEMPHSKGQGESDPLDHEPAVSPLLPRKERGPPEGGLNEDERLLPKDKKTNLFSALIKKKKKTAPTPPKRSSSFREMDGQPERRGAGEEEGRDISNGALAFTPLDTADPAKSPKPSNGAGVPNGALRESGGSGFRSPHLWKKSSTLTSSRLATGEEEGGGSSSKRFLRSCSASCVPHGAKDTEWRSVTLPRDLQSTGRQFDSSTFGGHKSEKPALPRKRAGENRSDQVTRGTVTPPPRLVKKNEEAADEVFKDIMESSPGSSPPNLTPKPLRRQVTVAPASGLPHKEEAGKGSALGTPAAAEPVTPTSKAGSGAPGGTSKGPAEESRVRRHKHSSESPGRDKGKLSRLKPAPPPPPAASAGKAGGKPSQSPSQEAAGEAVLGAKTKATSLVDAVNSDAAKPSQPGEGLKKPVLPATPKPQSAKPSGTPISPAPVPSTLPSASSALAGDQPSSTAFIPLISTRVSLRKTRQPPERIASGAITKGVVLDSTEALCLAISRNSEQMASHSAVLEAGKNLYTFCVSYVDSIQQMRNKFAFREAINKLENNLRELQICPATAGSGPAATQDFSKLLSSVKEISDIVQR
T9 sequence (Q02750 whole entry): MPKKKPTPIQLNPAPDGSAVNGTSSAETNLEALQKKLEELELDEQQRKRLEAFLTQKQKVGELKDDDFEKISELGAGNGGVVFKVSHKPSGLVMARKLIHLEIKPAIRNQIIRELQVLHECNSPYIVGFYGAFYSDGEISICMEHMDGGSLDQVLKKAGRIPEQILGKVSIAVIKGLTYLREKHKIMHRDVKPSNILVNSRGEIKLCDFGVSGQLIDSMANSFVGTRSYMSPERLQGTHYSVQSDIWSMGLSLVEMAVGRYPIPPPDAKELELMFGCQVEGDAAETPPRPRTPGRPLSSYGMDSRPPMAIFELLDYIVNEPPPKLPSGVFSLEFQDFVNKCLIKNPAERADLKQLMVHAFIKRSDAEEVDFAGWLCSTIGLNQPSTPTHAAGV
T3 sequence (P15056 whole entry): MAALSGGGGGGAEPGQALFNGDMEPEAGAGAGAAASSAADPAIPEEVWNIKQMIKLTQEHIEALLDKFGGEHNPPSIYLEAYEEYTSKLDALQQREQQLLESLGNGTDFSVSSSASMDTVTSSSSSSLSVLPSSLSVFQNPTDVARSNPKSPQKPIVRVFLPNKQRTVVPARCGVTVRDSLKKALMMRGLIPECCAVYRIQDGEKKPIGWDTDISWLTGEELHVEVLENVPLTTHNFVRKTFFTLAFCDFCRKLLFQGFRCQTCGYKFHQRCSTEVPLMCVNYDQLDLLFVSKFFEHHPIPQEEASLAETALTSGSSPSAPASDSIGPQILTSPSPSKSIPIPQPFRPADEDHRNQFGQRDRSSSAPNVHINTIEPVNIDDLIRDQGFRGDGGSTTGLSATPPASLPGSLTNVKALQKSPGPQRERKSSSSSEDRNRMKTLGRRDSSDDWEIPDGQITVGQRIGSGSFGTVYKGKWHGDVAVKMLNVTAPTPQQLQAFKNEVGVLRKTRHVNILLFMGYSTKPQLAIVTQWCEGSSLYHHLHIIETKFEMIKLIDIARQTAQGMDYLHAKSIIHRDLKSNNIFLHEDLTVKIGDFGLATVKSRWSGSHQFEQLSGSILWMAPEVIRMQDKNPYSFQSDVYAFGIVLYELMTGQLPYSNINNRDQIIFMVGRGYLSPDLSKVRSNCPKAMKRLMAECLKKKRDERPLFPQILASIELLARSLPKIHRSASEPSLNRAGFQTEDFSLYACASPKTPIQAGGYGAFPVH
T6 sequence (Q9H4B4 whole entry): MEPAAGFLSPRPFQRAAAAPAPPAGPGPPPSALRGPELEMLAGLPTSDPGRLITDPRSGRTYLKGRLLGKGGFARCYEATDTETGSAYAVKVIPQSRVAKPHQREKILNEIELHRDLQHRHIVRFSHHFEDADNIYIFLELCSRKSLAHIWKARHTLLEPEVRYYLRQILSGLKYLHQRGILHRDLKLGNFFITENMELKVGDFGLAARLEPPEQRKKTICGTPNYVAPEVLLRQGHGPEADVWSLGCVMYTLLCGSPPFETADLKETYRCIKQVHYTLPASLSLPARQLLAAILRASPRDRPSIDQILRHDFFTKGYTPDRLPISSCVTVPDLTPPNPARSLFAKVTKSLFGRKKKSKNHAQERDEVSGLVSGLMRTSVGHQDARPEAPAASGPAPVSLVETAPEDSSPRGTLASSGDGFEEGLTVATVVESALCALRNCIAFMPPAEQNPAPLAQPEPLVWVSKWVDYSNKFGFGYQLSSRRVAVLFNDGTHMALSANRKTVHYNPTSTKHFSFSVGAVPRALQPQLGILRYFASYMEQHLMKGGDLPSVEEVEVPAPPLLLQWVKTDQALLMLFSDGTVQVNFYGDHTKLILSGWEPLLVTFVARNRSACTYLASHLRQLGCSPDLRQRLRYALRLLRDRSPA

Compound | RA @ 1000nM (CSNK1D) [%] | RA @ 10000nM (CSNK1D) [%] | RA @ 1000nM (ABL1-nonphosphorylated) [%] | RA @ 10000nM (ABL1-nonphosphorylated) [%] | RA @ 1000nM (BRAF) [%] | RA @ 10000nM (BRAF) [%] | RA @ 1000nM (ULK2) [%] | RA @ 10000nM (ULK2) [%] | RA @ 1000nM (TGFBR1) [%] | RA @ 10000nM (TGFBR1) [%] | RA @ 1000nM (PLK3) [%] | RA @ 10000nM (PLK3) [%] | RA @ 1000nM (MARK3) [%] | RA @ 10000nM (MARK3) [%] | RA @ 1000nM (ERBB2) [%] | RA @ 10000nM (ERBB2) [%] | RA @ 1000nM (MEK1) [%] | RA @ 10000nM (MEK1) [%] | RA @ 1000nM (VEGFR2) [%] | RA @ 10000nM (VEGFR2) [%] | other results
CC(C)Cn1ncc2cc(Cc3ccc(F)cc3F)c(C(=O)NCCN(C)C)cc21 [Compound 94, 5-(2,4-Difluorobenzyl)-N-(2-(dimethylamino)ethyl)-1-isobutyl-1H-indazole-6-carboxamide] | 86 | 79 | 85 | 97 | 100 | 100 | 71 | 88 | 100 | 100 | 100 | 97 | 100 | 100 | 74 | 81 | 98 | 74 | 100 | 100 | RA @ 1000nM (PDGFRA): 96%; RA @ 10000nM (PDGFRA): 76%
CN(C)CCNC(=O)c1cc2c(cnn2CC2CCCCC2)cc1Cc1ccc(F)cc1F [Compound 95, 1-(Cyclohexylmethyl)-5-(2,4-difluorobenzyl)-N-(2-(dimethylamino)ethyl)-1H-indazole-6-carboxamide] | 93 | 84 | 90 | 90 | 100 | 100 | 77 | 75 | 100 | 100 | 88 | 100 | 79 | 86 | 84 | 78 | 98 | 100 | 100 | 100 | RA @ 1000nM (PDGFRA): 92%; RA @ 10000nM (PDGFRA): 92%
